In test [1] the target is T1, aquaporin-3 (AQP3) (Homo sapiens, UniProt Q92482).
T1 sequence (Q92482 1-292): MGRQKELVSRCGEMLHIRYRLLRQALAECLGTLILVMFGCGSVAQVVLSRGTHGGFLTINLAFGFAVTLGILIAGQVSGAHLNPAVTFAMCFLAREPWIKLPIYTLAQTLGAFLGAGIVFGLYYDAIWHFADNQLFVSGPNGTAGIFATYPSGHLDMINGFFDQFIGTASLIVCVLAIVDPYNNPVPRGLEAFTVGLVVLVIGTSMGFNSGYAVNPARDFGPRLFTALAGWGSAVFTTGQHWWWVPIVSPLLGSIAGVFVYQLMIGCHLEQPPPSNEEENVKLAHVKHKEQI
In words: stopped-flow glycerol permeability in hRBCs. Particulars: red blood cells. The format is cell-based. Also on record: native AQP3 in human red blood cells.

The target of test [2] is T1, aquaporin-3 (AQP3). In words: stopped-flow glycerol permeability in hRBCs; confirmed in yeast expressing human AQP3. The format is cell-based. Details: native AQP3 in human red blood cells (IC50). To be noted: red blood cells.

The substance P2W12 yielded a half-maximal inhibitory concentration (IC50) against aquaporin-3 (AQP3) [1] of 2780 ± 90 nM.
The substance P2W18 showed a 50% inhibitory concentration (IC50) at aquaporin-3 (AQP3) [2] of 800 ± 40 nM.
P5W30: the half-maximal inhibitory concentration (IC50) against aquaporin-3 (AQP3) [1] came out at 3240 ± 30 nM.

(Values after paper PMC7177757, “The Aquaporin-3-Inhibiting Potential of Polyoxotungstates” (International Journal of Molecular Sciences, 2020).)
